Laboratory results published in patent US10947213B1 (Merck Patent GmbH, priority 2015, dated 2021).
Structures can show the parent of a compound that is named as a salt.

The molecules below were run against T1, TLR7/NFKb HEK cells (Homo sapiens, UniProt Q9NYK1) (assay: HEK Cell Assay (TLR7/NFKb reporter, Steady-Glo luciferase readout)). Conditions: 30 min compound preincubation, then R*48 agonist for 5 hours, read-out: Potency.
T1 construct: expressed in transfected cells; host or cells: HEK cells (TLR7/NFKb reporter line)
T1 sequence (Q9NYK1 27-1049): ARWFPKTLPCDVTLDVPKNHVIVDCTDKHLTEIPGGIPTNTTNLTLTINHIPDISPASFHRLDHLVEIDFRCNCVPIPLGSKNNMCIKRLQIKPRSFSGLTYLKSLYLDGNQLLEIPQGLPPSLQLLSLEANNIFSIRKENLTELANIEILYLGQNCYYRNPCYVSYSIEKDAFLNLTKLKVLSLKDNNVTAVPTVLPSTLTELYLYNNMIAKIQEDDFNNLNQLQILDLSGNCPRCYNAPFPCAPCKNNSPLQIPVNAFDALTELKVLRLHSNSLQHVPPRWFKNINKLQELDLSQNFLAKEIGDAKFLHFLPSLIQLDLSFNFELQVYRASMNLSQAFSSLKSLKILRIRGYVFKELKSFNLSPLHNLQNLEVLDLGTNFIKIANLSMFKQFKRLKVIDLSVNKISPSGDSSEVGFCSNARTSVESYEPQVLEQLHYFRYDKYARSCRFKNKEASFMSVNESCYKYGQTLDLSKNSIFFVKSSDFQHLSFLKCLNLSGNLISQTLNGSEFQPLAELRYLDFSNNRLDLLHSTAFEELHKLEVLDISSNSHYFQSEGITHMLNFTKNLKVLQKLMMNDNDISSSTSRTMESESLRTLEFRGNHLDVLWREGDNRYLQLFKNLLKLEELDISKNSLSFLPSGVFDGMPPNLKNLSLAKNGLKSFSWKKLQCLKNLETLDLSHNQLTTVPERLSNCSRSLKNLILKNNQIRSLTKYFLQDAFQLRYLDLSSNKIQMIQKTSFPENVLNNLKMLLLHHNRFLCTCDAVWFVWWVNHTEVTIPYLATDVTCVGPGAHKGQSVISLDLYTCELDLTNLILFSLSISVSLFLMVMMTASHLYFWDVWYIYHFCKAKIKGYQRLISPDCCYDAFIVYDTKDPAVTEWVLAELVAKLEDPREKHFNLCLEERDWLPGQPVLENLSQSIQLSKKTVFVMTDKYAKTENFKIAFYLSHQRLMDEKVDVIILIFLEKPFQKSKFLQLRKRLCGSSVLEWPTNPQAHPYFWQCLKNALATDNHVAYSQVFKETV
Assay type: cell-based
Summary of the method: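 Steady-Glo luminescence after 5 h stimulation with R*48 agonist, following 30 min compound preincubation. Assay run in HEK cells carrying a TLR7/NFKb luciferase reporter, plated at 5000 cells/well and grown 24 h at 37° C (10% CO2) before treatment.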
C[C@H]1C[C@@H](NC(=O)CC2(O)CCCCC2)CN(c2ccc(C(F)(F)F)c3ncccc23)C1 [Compound 484, 2-(1-Hydroxy-cyclohexyl)-N-[(3R,5S)-5-methyl-1-(8-trifluoromethyl-quinolin-5-yl)-piperidin-3-yl]-acetamide] showed an IC50 of less than 1000 nM. With C[C@H]1C[C@@H](NC(=O)CC(C)(C)O)CN(c2ccc(C(F)(F)F)c3ncccc23)C1 [Compound 485] the IC50 was less than 1000 nM. Molecule Cc1c(F)cc(N2C[C@@H](C)C[C@@H](N)C2)c2cccnc12 [Compound 488, (3R,5S)-1-(7-Fluoro-8-methyl-quinolin-5-yl)-5-methyl-piperidin-3-ylamine hydrochloride] has an IC50 of less than 1000 nM. Molecule Cc1cc(F)c(N2C[C@@H](C)C[C@@H](N)C2)c2cccnc12 [Compound 489, (3R,5S)-1-(6-Fluoro-8-methyl-quinolin-5-yl)-5-methyl-piperidin-3-ylamine] has an IC50 of less than 1000 nM. For N#Cc1ccc(N2C[C@H](N)C[C@H](F)C2)c2nccnc12 [Compound 499, 8-((3R,5S)-3-Amino-5-fluoro-piperidin-1-yl)-quinoxaline-5-carbonitrile hydrochloride], the IC50 was 1000 to 10000 nM. For N#Cc1ccc(N2C[C@@H](N)C[C@@H](F)C2)c2nccnc12 [Compound 501, 8-((3S,5R)-3-Amino-5-fluoro-piperidin-1-yl)-quinoxaline-5-carbonitrile hydrochloride], the IC50 was greater than 10000 nM. CN1CCN(CC(=O)N[C@@H]2C[C@H](F)CN(c3ccc(C#N)c4nccnc34)C2)CC1 [Compound 502, N-[(3R,5S)-1-(8-Cyano-quinoxalin-5-yl)-5-fluoro-piperidin-3-yl]-2-(4-methyl-piperazin-1-yl)-acetamide] gave an IC50 of 1000 to 10000 nM. Work on CN1CCN(CC(=O)NC2CN(c3ccc(C#N)c4nccnc34)CC(F)(F)C2)CC1 (stereo not drawn) [Compound 503, N-[1-(8-Cyano-quinoxalin-5-yl)-5,5-difluoro-piperidin-3-yl]-2-(4-methyl-piperazin-1-yl)-acetamide] yielded an IC50 of less than 1000 nM. In the case of CC(C)(N)CC(=O)NC1CN(c2ccc(C#N)c3nccnc23)CC(F)(F)C1 (stereo not drawn) [Compound 505, 3-Amino-N-[1-(8-cyano-quinoxalin-5-yl)-5,5-difluoro-piperidin-3-yl]-3-methyl-butyramide hydrochloride], the IC50 is reported as 1000 to 10000 nM. With CC(Cl)C(=O)NC1CN(c2ccc(C#N)c3nccnc23)CC(F)(F)C1 (stereo not drawn) [Compound 506, 2-Chloro-N-[1-(8-cyano-quinoxalin-5-yl)-5,5-difluoro-piperidin-3-yl]-propionamide] the IC50 was 1000 to 10000 nM. With CC(C(=O)NC1CN(c2ccc(C#N)c3nccnc23)CC(F)(F)C1)N1CCOCC1 (stereo not drawn) [Compound 509, N-[1-(8-Cyano-quinoxalin-5-yl)-5,5-difluoro-piperidin-3-yl]-2-morpholin-4-yl-propionamide] the IC50 was greater than 10000 nM. Molecule NC1CN(c2ccc(C(F)(F)F)c3ncccc23)CC(F)(F)C1 (stereo not drawn) [Compound 510, 5,5-Difluoro-1-(8-trifluoromethyl-quinolin-5-yl)-piperidin-3-ylamine] has an IC50 of less than 1000 nM. Work on CN1CCN(CC(=O)NC2CN(c3ccc(C(F)(F)F)c4ncccc34)CC(F)(F)C2)CC1 (stereo not drawn) [Compound 511, N-[5,5-Difluoro-1-(8-trifluoromethyl-quinolin-5-yl)-piperidin-3-yl]-2-(4-methyl-piperazin-1-yl)-acetamide] yielded an IC50 of less than 1000 nM. In the case of O=C(CN1CCOCC1)NC1CN(c2ccc(C(F)(F)F)c3ncccc23)CC(F)(F)C1 (stereo not drawn) [Compound 512, N-[5,5-Difluoro-1-(8-trifluoromethyl-quinolin-5-yl)-piperidin-3-yl]-2-morpholin-4-yl-acetamide], the IC50 is reported as 1000 to 10000 nM. In the case of O=C(NC1CN(c2ccc(C(F)(F)F)c3ncccc23)CC(F)(F)C1)C(O)C1CC1 (stereo not drawn) [Compound 513, 2-Cyclopropyl-N-[5,5-difluoro-1-(8-trifluoromethyl-quinolin-5-yl)-piperidin-3-yl]-2-hydroxy-acetamide], the IC50 is reported as 1000 to 10000 nM. In the case of C[C@H]1C[C@@H](NC(=O)CC(C)(C)N)CN(c2ccc(C(F)(F)F)c3ncccc23)C1 [Compound 514, 3-Amino-3-methyl-N-[(3R,5S)-5-methyl-1-(8-trifluoromethyl-quinolin-5-yl)-piperidin-3-yl]-butyramide], the IC50 is reported as less than 1000 nM. C[C@H]1C[C@@H](NC(=O)C(O)C2CC2)CN(c2ccc(C(F)(F)F)c3ncccc23)C1 (stereo partly drawn) [Compound 515, 2-Cyclopropyl-2-hydroxy-N-[(3R,5S)-5-methyl-1-(8-trifluoromethyl-quinolin-5-yl)-piperidin-3-yl]-acetamide] was tested, and the IC50 was less than 1000 nM. For CC(C(=O)N[C@@H]1C[C@H](C)CN(c2ccc(C(F)(F)F)c3ncccc23)C1)N1CCN(C)CC1 (stereo partly drawn) [Compound 516, 2-(4-Methyl-piperazin-1-yl)-N-[(3R,5S)-5-methyl-1-(8-trifluoromethyl-quinolin-5-yl)-piperidin-3-yl]-propionamide], the IC50 was less than 1000 nM. With CC(=O)N[C@@H]1C[C@H](C)CN(c2ccc(C(F)(F)F)c3ncccc23)C1 [Compound 517, N-[(3R,5S)-5-Methyl-1-(8-trifluoromethyl-quinolin-5-yl)-piperidin-3-yl]-acetamide] the IC50 was less than 1000 nM. With C[C@H]1C[C@@H](NC(=O)NC2CC2)CN(c2ccc(C(F)(F)F)c3ncccc23)C1 [Compound 518, 1-Cyclopropyl-3-[(3R,5S)-5-methyl-1-(8-trifluoromethyl-quinolin-5-yl)-piperidin-3-yl]-urea] the IC50 was less than 1000 nM. Molecule C[C@H]1C[C@@H](NC(=O)C(C2CC2)N(C)C)CN(c2ccc(C(F)(F)F)c3ncccc23)C1 (stereo partly drawn) [Compound 519, 2-Cyclopropyl-2-dimethylamino-N-[(3R,5S)-5-methyl-1-(8-trifluoromethyl-quinolin-5-yl)-piperidin-3-yl]-acetamide] has an IC50 of less than 1000 nM. N#Cc1ccc(N2CCC(F)C(N)C2)c2nccnc12 (stereo not drawn) [Compound 524, 8-(3-Amino-4-fluoro-piperidin-1-yl)-quinoxaline-5-carbonitrile hydrochloride] gave an IC50 of 1000 to 10000 nM. Work on Cc1cnc2c(N3C[C@@H](C)C[C@@H](N)C3)ccc(C#N)c2n1 [Compound 525, 8-((3R,5S)-3-Amino-5-methyl-piperidin-1-yl)-3-methyl-quinoxaline-5-carbonitrile] yielded an IC50 of less than 1000 nM. Work on C[C@H]1C[C@@H](NC(=O)[C@H](C)N(C)C)CN(c2ccc(C(F)(F)F)c3ncccc23)C1 [Compound 526, (S)-2-Dimethylamino-N-[(3R,5S)-5-methyl-1-(8-trifluoromethyl-quinolin-5-yl)-piperidin-3-yl]-propionamide] yielded an IC50 of less than 1000 nM. Work on CN1CCC(NC(=O)C2CN(c3ccc(C#N)c4nccnc34)CC(F)(F)C2)CC1 (stereo not drawn) [Compound 529, 1-(8-Cyano-quinoxalin-5-yl)-5,5-difluoro-piperidine-3-carboxylic acid (1-methyl-piperidin-4-yl)-amide] yielded an IC50 of less than 1000 nM. Work on CN1CCC(NC(=O)C2CN(c3ccc(C#N)c4ncccc34)CC(F)(F)C2)CC1 (stereo not drawn) [Compound 530, 1-(8-Cyano-quinolin-5-yl)-5,5-difluoro-piperidine-3-carboxylic acid (1-methyl-piperidin-4-yl)-amide] yielded an IC50 of less than 1000 nM. Molecule CN1CCC(CNC(=O)C2CN(c3ccc(C#N)c4ncccc34)CC(F)(F)C2)CC1 (stereo not drawn) [Compound 531, 1-(8-Cyano-quinolin-5-yl)-5,5-difluoro-piperidine-3-carboxylic Acid (1-methyl-piperidin-4-ylmethyl)-amide] has an IC50 of less than 1000 nM.
